From US10526316B2, “Quinoxaline and pyridopyrazine derivatives as PI3Kβ inhibitors” (Janssen Pharmaceutica NV, priority 2015, dated 2020) come the findings set out here.

Assay [1] deals with T1, kinase enzymes (Homo sapiens, UniProt P48736).
T1 construct: purchased DiscoveRx Corporation, San Diego (contract service, KINOMEscan)
Description: Enzyme binding assay (KINOMEscan, DiscoveRx), further kinases of Table A. The following applies: PIK3Cγ_h. The method, then:
(§1) Enzyme Binding Assays (KINOMEscan®)
(§2) Kinase enzyme binding affinities of compounds disclosed herein were determined using the KINOMEscan technology performed by DiscoveRx Corporation, San Diego, Calif., USA (www.kinomescan.com).

Assay [2] has as its target T2, kinase enzymes (Homo sapiens, UniProt P42345).
T2 construct: purchased DiscoveRx Corporation, San Diego (contract service, KINOMEscan)
The assay is described as above. The following applies: MTOR_h. The method, then: as §1, §2

Assay [3] has as its target T3, kinase enzymes (Homo sapiens, UniProt P42336).
T3 construct: purchased DiscoveRx Corporation, San Diego (contract service, KINOMEscan)
The assay is described as above. The settings on record: PIK3Cα_h. The procedure:
as §1, §2

Assay [4] deals with T4, PI3Kβ (Homo sapiens, UniProt P42338).
T4 construct: purchased DiscoveRx Corporation, San Diego (contract service, KINOMEscan)
Description: Enzyme binding assay (KINOMEscan, DiscoveRx). The following applies: PIK3Cβ_h, read-out: Kd PIK3Cβ_h. The method, then: as §1
Kinase enzyme binding affinities of compounds disclosed herein were determined using the KINOMEscan technology performed by DiscoveRx Corporation, San Diego, Calif., USA (www.kinomescan.com). Table A reports the obtained Kd values (nM), with the Kd being the inhibitor binding constant: […]

Assay [5] deals with Akt phosphorylated at Ser473 in PC-3 cells. Description: Cellular assay: phosphorylation of Akt at Ser473 in PC-3 cells (MSD ELISA). The assay is classed as cell-based. The following applies: PC-3 cells, 60 min compound incubation, MSD ELISA, read-out: IC50 pAkt_S473. The method, then: (§3) Cellular activity of PI3KP inhibitors was determined by quantifying the phosphorylation of Akt in PC-3 cells. Akt phosphorylated at Ser473 and Thr308 were measured using an enzyme-linked immunosorbent assay (ELISA; Meso Scale Discovery (MSD), Gaithersburg. Md.) and specific primary antibodies from MSD.
(§4) On day 2, compound or DMSO (0.3%) was added and cells were further incubated for 60 min at 37° C. 5% CO2 in a total volume of 100 μl of medium.
(§5) The phosphoprotein assay was executed according to vendor instructions in the Phospho-Akt (Ser473) Assay Whole Cell Lysate Kit (MSD # K15100D-3) and the Phospho-Akt (Thr308) Assay Whole Cell Lysate Kit (MSD # K151DYD-3) using the lysis, blocking and wash buffer provided.
(§6) Briefly, at the end of the cell treatment period, media were removed by aspiration and adherent cells were lysed in 50 μl ice-cold lysis buffer. MSD plates are supplied pre-coated with capture antibodies for Phospho-Akt (Ser473 and Thr308). After blocking, lysates from tissue culture plates were added and plates were washed. Then, a solution containing the detection antibody (anti-total Akt conjugated with an electrochemiluminescent compound-MSD Sulfo-tag label) was added. The signals were detected using an MSD SECTOR Imager 6000 and are proportional to the phospho-Akt titres.
(§7) Data were processed. […] From these concentration-response curves, the IC50 values were calculated. Five concentrations were used for curve fitting.

The target of assay [6] is T5, PI3Kδ (Homo sapiens, UniProt O00329).
T5 construct: purchased DiscoveRx Corporation, San Diego (contract service, KINOMEscan)
T5 sequence (O00329 1-1044): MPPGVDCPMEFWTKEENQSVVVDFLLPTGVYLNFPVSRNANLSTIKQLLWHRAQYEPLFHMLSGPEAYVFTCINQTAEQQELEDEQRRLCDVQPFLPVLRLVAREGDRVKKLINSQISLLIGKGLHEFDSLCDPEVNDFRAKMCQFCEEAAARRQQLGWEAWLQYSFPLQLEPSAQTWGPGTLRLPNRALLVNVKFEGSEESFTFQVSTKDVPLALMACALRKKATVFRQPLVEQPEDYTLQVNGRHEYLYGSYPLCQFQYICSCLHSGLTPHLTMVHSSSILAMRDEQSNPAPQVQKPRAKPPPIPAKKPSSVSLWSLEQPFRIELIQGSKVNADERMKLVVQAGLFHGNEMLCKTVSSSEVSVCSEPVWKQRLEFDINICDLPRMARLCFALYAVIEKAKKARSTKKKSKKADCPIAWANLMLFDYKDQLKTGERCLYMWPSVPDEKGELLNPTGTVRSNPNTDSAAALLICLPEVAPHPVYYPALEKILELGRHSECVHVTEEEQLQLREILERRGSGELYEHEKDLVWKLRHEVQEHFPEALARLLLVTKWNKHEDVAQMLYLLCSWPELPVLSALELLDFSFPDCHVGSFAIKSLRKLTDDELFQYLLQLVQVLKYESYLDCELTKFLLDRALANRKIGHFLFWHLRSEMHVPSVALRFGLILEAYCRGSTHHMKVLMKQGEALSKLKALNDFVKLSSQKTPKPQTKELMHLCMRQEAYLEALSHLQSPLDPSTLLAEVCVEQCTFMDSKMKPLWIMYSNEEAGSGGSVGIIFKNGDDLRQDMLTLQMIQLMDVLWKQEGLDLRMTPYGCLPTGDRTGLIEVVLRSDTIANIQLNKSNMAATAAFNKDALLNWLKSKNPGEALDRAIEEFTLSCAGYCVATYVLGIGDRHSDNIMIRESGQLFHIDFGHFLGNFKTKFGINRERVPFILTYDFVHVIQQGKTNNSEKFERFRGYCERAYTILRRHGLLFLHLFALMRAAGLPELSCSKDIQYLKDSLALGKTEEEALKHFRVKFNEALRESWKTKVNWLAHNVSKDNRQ
Description: Enzyme binding assay (KINOMEscan, DiscoveRx). The following applies: PIK3Cδ_h. The procedure: as §1, §2

Assay [7] deals with Akt phosphorylated at Thr308 in PC-3 cells. Description: Cellular assay: phosphorylation of Akt at Thr308 in PC-3 cells (MSD ELISA). The assay is classed as cell-based. The following applies: PC-3 cells, 60 min compound incubation, MSD ELISA, read-out: IC50 pAkt_Thr308. The method, then: as §3, §4, §5, §6, §7
Background: In an ELISA, binding on a coated surface is turned into a signal by an enzyme label.

Read-outs that look alike come from different tables or passages of the source. A value given as a limit tells only on which side of the number the result lay.

T1 sequence (P48736 whole entry): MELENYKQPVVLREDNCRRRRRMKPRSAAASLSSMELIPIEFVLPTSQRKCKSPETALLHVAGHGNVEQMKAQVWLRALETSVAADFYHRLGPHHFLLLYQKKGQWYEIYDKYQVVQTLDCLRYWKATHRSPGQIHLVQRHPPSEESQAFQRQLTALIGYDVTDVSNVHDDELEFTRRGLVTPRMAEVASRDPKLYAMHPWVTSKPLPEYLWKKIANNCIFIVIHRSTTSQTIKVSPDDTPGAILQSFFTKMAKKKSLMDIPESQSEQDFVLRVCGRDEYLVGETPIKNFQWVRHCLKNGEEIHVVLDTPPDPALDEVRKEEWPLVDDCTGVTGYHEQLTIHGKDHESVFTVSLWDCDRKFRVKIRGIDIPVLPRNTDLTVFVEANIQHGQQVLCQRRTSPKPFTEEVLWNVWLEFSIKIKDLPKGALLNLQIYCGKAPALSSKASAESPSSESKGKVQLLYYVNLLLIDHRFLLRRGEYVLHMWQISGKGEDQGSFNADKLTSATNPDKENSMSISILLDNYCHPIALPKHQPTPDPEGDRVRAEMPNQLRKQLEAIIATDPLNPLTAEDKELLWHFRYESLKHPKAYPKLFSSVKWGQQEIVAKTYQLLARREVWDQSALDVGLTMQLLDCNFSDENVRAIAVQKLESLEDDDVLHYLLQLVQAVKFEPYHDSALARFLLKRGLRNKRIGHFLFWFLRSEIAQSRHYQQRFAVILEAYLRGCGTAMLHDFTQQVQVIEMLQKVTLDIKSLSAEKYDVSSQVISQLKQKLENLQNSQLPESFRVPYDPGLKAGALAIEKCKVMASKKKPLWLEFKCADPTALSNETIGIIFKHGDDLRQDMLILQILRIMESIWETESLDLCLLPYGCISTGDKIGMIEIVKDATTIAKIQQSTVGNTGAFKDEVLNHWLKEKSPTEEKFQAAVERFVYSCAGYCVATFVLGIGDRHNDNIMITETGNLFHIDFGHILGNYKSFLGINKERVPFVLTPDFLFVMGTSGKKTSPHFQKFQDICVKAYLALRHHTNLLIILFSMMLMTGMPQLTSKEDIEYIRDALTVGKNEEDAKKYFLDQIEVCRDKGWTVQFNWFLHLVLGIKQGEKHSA
T4 sequence (P42338 whole entry): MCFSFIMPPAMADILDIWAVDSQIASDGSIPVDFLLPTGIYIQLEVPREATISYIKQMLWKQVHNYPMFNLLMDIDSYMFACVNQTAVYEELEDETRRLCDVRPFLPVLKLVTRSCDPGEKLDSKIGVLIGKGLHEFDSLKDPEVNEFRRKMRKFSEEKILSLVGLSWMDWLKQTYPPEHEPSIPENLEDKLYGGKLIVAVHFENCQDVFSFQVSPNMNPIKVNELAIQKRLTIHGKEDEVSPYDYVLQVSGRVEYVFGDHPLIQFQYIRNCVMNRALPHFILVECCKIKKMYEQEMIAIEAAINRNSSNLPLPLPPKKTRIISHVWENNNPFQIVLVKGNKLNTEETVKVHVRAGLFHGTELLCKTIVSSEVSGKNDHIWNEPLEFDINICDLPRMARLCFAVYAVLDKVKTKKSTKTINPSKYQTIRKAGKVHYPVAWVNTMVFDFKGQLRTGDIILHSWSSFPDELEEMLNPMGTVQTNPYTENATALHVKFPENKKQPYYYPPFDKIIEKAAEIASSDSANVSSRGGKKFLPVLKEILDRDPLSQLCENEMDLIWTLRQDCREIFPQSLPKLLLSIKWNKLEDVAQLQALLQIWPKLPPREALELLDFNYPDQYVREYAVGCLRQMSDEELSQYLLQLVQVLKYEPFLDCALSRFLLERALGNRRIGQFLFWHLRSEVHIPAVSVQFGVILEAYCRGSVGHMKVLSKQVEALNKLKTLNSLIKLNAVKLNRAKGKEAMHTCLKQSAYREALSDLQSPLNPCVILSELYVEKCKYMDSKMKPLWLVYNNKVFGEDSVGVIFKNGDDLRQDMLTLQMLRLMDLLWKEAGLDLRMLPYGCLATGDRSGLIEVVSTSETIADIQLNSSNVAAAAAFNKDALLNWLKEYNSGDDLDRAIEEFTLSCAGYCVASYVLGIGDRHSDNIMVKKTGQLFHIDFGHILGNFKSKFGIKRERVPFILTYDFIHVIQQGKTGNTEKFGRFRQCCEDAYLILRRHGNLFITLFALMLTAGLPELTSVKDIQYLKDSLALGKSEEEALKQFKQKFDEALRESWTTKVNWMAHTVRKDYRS
T3 sequence (P42336 whole entry): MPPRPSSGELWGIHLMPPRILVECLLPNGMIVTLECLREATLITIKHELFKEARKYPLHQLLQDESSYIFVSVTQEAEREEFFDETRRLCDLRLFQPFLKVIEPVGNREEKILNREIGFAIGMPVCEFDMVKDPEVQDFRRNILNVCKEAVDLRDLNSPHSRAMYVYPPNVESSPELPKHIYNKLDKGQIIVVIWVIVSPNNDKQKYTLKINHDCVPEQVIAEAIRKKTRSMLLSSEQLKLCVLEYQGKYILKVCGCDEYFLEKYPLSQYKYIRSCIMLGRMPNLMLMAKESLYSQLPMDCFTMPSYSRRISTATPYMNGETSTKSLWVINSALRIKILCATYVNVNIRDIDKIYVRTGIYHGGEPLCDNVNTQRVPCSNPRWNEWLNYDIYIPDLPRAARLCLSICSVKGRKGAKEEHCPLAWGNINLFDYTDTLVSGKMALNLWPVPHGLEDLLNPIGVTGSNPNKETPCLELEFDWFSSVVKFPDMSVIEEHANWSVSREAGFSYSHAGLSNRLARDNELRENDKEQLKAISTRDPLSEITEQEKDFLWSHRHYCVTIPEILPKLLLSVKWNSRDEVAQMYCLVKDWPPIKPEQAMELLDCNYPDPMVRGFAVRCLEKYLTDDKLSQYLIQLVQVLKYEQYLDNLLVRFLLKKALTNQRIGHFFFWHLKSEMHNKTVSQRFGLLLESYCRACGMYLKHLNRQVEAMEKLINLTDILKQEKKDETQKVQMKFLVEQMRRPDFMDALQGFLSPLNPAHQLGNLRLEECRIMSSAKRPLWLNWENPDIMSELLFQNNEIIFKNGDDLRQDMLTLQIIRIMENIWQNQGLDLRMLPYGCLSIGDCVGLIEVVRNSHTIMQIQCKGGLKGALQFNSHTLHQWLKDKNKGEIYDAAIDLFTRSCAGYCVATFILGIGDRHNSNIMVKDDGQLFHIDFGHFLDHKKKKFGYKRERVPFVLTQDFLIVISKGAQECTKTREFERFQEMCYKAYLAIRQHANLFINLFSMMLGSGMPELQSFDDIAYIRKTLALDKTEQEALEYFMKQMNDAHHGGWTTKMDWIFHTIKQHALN

A word on the Kd: it is the equilibrium constant for the complex coming apart. In general, IC50 refers to the concentration that inhibits the measured activity by half. As for `CNCCNC(=O)c1cc(C(C)Nc2cccc(F)c2)c2nc(N3CCOCC3)cnc2c1` (single isomer, unassigned) [Compound 138], the Kd in assay [1] was 2150 nM; in assay [2] it was 30900 nM; in assay [3] it was 398 nM; in assay [4], 0.1 nM; in assay [6], 56 nM. Further, the IC50 in assay [5] came to 3 nM; in assay [7] it was 2 nM.

Regarding `CC(Nc1cc(F)cc(F)c1)c1cc(COCCO)cc2ncc(N3CCOCC3)nc12` (single isomer, unassigned) [Compound 177], the dissociation constant Kd was found to be 6920 nM in assay [1]; 24000 nM in assay [2]; 1380 nM in assay [3]; 2 nM in assay [4]; 170 nM in assay [6]. Besides, the IC50 is 60 nM in assay [5] and 42 nM in assay [7].

Regarding `CC(Nc1cc(F)cc(F)c1)c1cc(CN2CCO[C@H](CO)C2)cc2ncc(N3CCOCC3)nc12` (single isomer, unassigned) [Compound 196], the Kd in assay [1] was 15800 nM; in assay [2], above 30200 nM; in assay [3], 2820 nM; in assay [4] it was 5 nM; in assay [6], 813 nM. The half-inhibitory concentration (IC50) is 182 nM in assay [5] (Homo sapiens, PC-3, 1 h) and 91 nM in assay [7] (Homo sapiens, PC-3, 1 h).

As for `CC(Oc1cccc(F)c1)c1cc(C(=O)N(C)C)cc2ncc(N3CCOCC3)nc12` (single isomer, unassigned) [Compound 339b], the equilibrium dissociation constant (Kd) in assay [1] is 2190 nM; in assay [2] it was 6460 nM; in assay [3], 759 nM; in assay [4], 316 nM; in assay [6], 1950 nM. Moreover, the IC50 in assay [5] and in assay [7] was above 513 nM throughout.

Take `CC(C)NCCNC(=O)c1cc(C(C)Oc2cccc(F)c2)c2nc(N3CCOCC3)cnc2c1` (single isomer, unassigned) [Compound 314a]: the Kd in assay [1] came to 30200 nM; in assay [2], 19100 nM; in assay [3], 17400 nM; in assay [4], 417 nM; in assay [6] it was 6030 nM. In addition, the IC50 in assay [5] is around 407 nM; in assay [7], above 513 nM.

Consider `CC(C)N1CCCN(C(=O)c2cc(N(C)Cc3cc(F)cc(F)c3)c3nc(N4CCOCC4)cnc3c2)CC1` [Compound 373], for which the Kd in assay [1] was above 30200 nM; in assay [2], above 30200 nM; in assay [3] it was above 30200 nM; in assay [4] it was 158 nM; in assay [6], 5250 nM. Besides, the IC50 is above 513 nM in assay [5] (Homo sapiens, PC-3, 1 h) and above 513 nM in assay [7] (Homo sapiens, PC-3, 1 h).

For the compound `CC(Nc1cc(F)cc(F)c1)c1cc(C(=O)NC[C@H](C)O)cc2ncc(N3CCOCC3)nc12` (single isomer, unassigned) [Compound 246a], the dissociation constant Kd in assay [1] turned out to be 6760 nM; in assay [2], 26900 nM; in assay [3] it was 813 nM; in assay [4], 4 nM; in assay [6] it was 3890 nM. Also, the concentration for half-maximal inhibition (IC50) in assay [5] (Homo sapiens, PC-3, 1 h) was determined as 44 nM; in assay [7] (Homo sapiens, PC-3, 1 h) it was 24 nM.

Turning to `CC(c1cc(C(=O)N(C)C)cc2ncc(N3CCOCC3)nc12)N(C)c1cccc(Cl)c1` (stereo not shown) [Compound 141], the dissociation constant Kd was 8130 nM in assay [1]; above 30200 nM in assay [2]; 6610 nM in assay [3]; 6 nM in assay [4]; 776 nM in assay [6]. Also, the half-inhibitory concentration (IC50) in assay [5] (Homo sapiens, PC-3, 1 h) worked out at 182 nM; in assay [7] (Homo sapiens, PC-3, 1 h) it was 102 nM.

Consider `CC(C)N1CCCN(C(=O)c2cc(NCc3cc(F)cc(F)c3)c3nc(N4CCOCC4)cnc3c2)CC1` [Compound 360], for which the dissociation constant Kd is 26900 nM in assay [1]; above 30200 nM in assay [2]; 6760 nM in assay [3]; 42 nM in assay [4]; 11700 nM in assay [6]. Besides, the IC50 in assay [5] (Homo sapiens, PC-3, 1 h) was above 513 nM; in assay [7] (Homo sapiens, PC-3, 1 h) it was above 513 nM.

Consider `COC(=O)c1cc(C2CCCN2c2cc(F)cc(F)c2)c2nc(N3CCOCC3)cnc2c1` (single isomer, unassigned) [Compound 252], for which the Kd in assay [1], in assay [2], in assay [3], in assay [4] and in assay [6] was above 30200 nM throughout. Besides, the 50% inhibitory concentration (IC50) in assay [5] and in assay [7] was above 513 nM each time.

In the case of `CNCCNC(=O)c1cc([C@H](C)Oc2cccc(F)c2)c2nc(N3CCOCC3)cnc2c1` [Compound 123], the dissociation constant (Kd) in assay [1] was 12600 nM; in assay [2], 16600 nM; in assay [3] it was 9330 nM; in assay [4] it was 91 nM; in assay [6] it was 2240 nM. For the same compound, the 50% inhibitory concentration (IC50) is above 513 nM in assay [5] (Homo sapiens, PC-3, 1 h) and above 513 nM in assay [7] (Homo sapiens, PC-3, 1 h).

For `CC(C)NCCNC(=O)c1cc(C(C)Nc2cccc(F)c2)c2nc(N3CCOCC3)cnc2c1` (single isomer, unassigned) [Compound 228], the Kd in assay [1] is 4070 nM; in assay [2] it was above 30200 nM; in assay [3], 6170 nM; in assay [4], 603 nM; in assay [6] it was 15500 nM. In addition, the results for the half-maximal inhibitory concentration (IC50) in assay [5] and in assay [7] were above 513 nM and 347 nM, respectively.

Consider `Cc1c(F)cccc1CNc1cc(C(=O)N(C)CCNC(C)C)cc2ncc(N3CCOCC3)nc12` [Compound 385], for which the Kd in assay [1] is 6170 nM; in assay [2], 16600 nM; in assay [3] it was 933 nM; in assay [4] it was 1 nM; in assay [6], 347 nM. Moreover, the half-inhibitory concentration (IC50) in assay [5] (Homo sapiens, PC-3, 1 h) stood at 32 nM; in assay [7] (Homo sapiens, PC-3, 1 h), 20 nM.

Turning to `CC(Oc1cc(F)cc(F)c1)c1cc(C(=O)N(C)C)cc2ncc(N3CCOCC3)nc12` (stereo not shown) [Compound 53], the Kd is 21400 nM in assay [1]; above 30200 nM in assay [2]; 2950 nM in assay [3]; 3 nM in assay [4]; 692 nM in assay [6]. Moreover, the half-inhibitory concentration (IC50) in assay [5] (Homo sapiens, PC-3, 1 h) amounted to 214 nM; in assay [7] (Homo sapiens, PC-3, 1 h), 148 nM.

In the case of `CCN1CCN(C(=O)c2cc(C(C)Oc3cccc(F)c3)c3nc(N4CCOCC4)cnc3c2)CC1` (single isomer, unassigned) [Compound 92], the Kd in assay [1] is above 30200 nM; in assay [2] it was above 30200 nM; in assay [3], 16200 nM; in assay [4] it was 1020 nM; in assay [6], 16600 nM. Moreover, the IC50 in assay [5] and in assay [7] was above 513 nM throughout.

`CC(Nc1cc(F)c(F)c(F)c1)c1cc(C(=O)N(C)C2CCNC2)cc2ncc(N3CCOCC3)nc12` (single isomer, unassigned) [Compound 296b]: the dissociation constant Kd was above 30200 nM in assay [1]; above 30200 nM in assay [2]; above 30200 nM in assay [3]; 14 nM in assay [4]; 9330 nM in assay [6]. For the same compound, the 50% inhibitory concentration (IC50) in assay [5] was 468 nM; in assay [7], 339 nM.
